According to patent publication US20130130928A1, “METHODS FOR PREDICTING OR MONITORING WHETHER A PATIENT AFFECTED BY A CANCER IS RESPONSIVE TO A TREATMENT WITH A MOLECULE OF THE TAXOID FAMILY” (INSTITUT GUSTAVE ROUSSY, priority 2010, published 2013):

How the values were obtained:
[1] = test system: IGR-CaP1 docetaxel-resistant cell lines (IGR-CaP1-R); assay: Genome-wide microarray gene expression analysis of docetaxel-resistant vs parental IGR-CaP1 cells, first analysis (Tables 1-4, FC exp1); format: cell-based, human
Protocol: (§1) The human androgen-independent IGR-CaP1 cell line recently obtained for a localized prostate cancer was maintained in RPMI medium complemented with 10% FBS and antibiotics.
Quality of RNA preparation, based on the RNA Integrity Number (RIN), was assessed using the Agilent RNA 6000 Nano Kit as developed on the Agilent 2100 Bioanalyzer device (Agilent Technologies, Palo Alto, Calif.). […] RNA samples were frozen in nuclease-free water (Qiagen).
Parental and resistant-cell line total RNAs were directly compared by using Agilent oligonucleotide dual-color technology, running dye-swap and duplicate experiments. Total RNA from the parental IGR-CaP1 cell line without treatment was used as the RNA reference. […] Probe synthesis and labeling were performed by Agilent's Low Fluorescent Low input Linear Amplification Kit. Hybridization was performed on the Agilent 4×44K Human 1A (G4112F) long (60-bp) oligonucleotide microarrays (Agilent Technologies) by using reagents and protocols provided by the manufacturer. Feature extraction software provided by Agilent (Version A.9.5.3.1) was used to quantify the intensity of fluorescent images and to normalize results using the linear and lowess subtraction method.
The methodology described below is based on a dose-dependent gene expression changes:
Under the hypothesis of a clone enrichment, and/or a biological effect due to drug increasing, monotonically increasing or decreasing expression profiles were identified by using a 5-parameters logistic regression model:
where yg is the log.ratio of treatment vs. reference for the gene g, x is the drug-dose in Log10[nM], and B, T, xc, p are, respectively, the estimated minimal value, the estimated maximal value, the slope at the inflexion point, and the asymmetric parameter. For each probe, parameters were first initialized with the observed values, and then optimized by an iterative method of gradient (the Newton-Raphson method). The aim of this iterative algorithm is to minimize the weighted quadratic sum of residuals:
The performance of the fitting was measured, for each probe, by a robust linear regression (RLR) of the fitted values against the observed values. Probes potentially associated with the drug increasing were selected on the 2 following criterion:
RLRp-value ≦1e-5, and |fold change|≧2 between the first and the last dose (resp: 5 and 200 nM), considering the fold change estimated by the 5-parameters logistic regression model. Calculations and graphic visualizations were performed in R (free software version 2.6.2), by using the package “MASS” (version 7.2-40), and supplemental scripts, in R language, written in the lab (F. Commo).
Untreated IGR-CaP1 parental cell lines were used as baseline. Such genes were those for which expression changes (at least one probe in case of multiple probe sets per gene) appeared as drug-dependent, in the sense of criterion described above.

[2] = test system: prostate cancer; conditions: cited from earlier work
[3] = test system: IGR-CaP1 cells; assay: Generation of acquired resistance to docetaxel in vitro (dose-escalation selection of clones); format: cell-based, human; conditions: selection with docetaxel, before proliferation was regained
Text: The prostate cancer cell line IGR-CaP1 is described in CNCM deposit number I-4126 on Feb. 10, 2009.
as §1
Prostate cancer IGR-CaP1 cells were used to generate successive docetaxel-resistant cell lines. […] Cell cycle analysis was done to show acquired resistance to drug.

[4] = test system: docetaxel resistant cells (PC3 and DU145); conditions: cited from earlier work
[5] = IGR-CaP1-R 100 nM docetaxel clone vs parental IGR-CaP1

SMILES | ZFP62 gene expression 5 nM ([1]; IGR-CaP1-R 5 nM docetaxel clone vs parental IGR-CaP1) | ZFP62 gene expression 12 nM ([1]; IGR-CaP1-R 12 nM docetaxel clone vs parental IGR-CaP1) | ZFP62 gene expression 25 nM ([1]; IGR-CaP1-R 25 nM docetaxel clone vs parental IGR-CaP1) | ZFP62 gene expression 50 nM ([1]; IGR-CaP1-R 50 nM docetaxel clone vs parental IGR-CaP1) | LRRC44 gene expression 100 nM [1, 5] | ZFP62 gene expression 100 nM [1, 5] | ZFP62 gene expression 200 nM ([1]; IGR-CaP1-R 200 nM docetaxel clone vs parental IGR-CaP1) | patients developing resistance to the chemotherapy ([2]; from the beginning or in a secondary way) | toxicity ([2]; patients) | survival ([2]; prostate cancer patients, TAX 327 and SWOG 99-16) | cell death on addition of docetaxel [3] | apoptosis [4] | clusterin expression [4]
CC(=O)O[C@@]12CO[C@@H]1C[C@H](O)[C@@]1(C)C(=O)[C@H](O)C3=C(C)[C@@H](OC(=O)[C@H](O)[C@@H](NC(=O)OC(C)(C)C)c4ccccc4)C[C@@](O)([C@@H](OC(=O)c4ccccc4)[C@H]21)C3(C)C [docetaxel] | 0.190 | 0.246 | 0.278 | 0.402 | 0.139 | 0.482 | 0.503 | almost half | great toxicity | increase in survival | a large majority of cells initially underwent cell death | – | –
Oc1ccc(C=Cc2cc(O)cc(O)c2)cc1 [resveratrol] | – | – | – | – | – | – | – | – | – | – | – | increase of apoptosis | decreased expression of clusterin
